# Results published in patent US7563862B2, “Neural regeneration peptides and methods for their use in treatment of brain damage” (Neuren Pharmaceuticals Limited, priority 2001, dated 2009).
# Ends that are not written are not given here.
# How the values were obtained:
# [1] = system: GFAP-positive astrocytes; test: astrocyte proliferation (GFAP/BrdU) in thalamocortical OTC cell bridge; format: cell-based, rat
# Procedure: FIG. 12 depicts the specificity of the proliferation induced by NRP-1 (SEQ ID NO: 2). We tested the proliferation status of astroglia by monitoring the expression patterns for GFAP and BrdU-incorporation. Thalamocortical OTCs were supplemented with 3 nM highly purified migration-inducing factor and fixed following 4 days in vitro. FIG. 12A (left panel) depicts non-proliferative GFAP-positive astrocytes (white arrows) accompanying the neuronal migration stream, with a subpopulation of astrocytes of proliferative character (FIG. 12B, right panel; white arrow heads). Approximately 30% of the astrocytes in close vicinity to the neuronal migration stream were of proliferative character. Bar: 50 μm.
# We also investigated the effects of NRP-1 (SEQ ID NO:2) on the induction of proliferation within astrocytes in a qualitative way. […] Therefore we looked only at the newly formed cell bridge between the thalamic and cortical tissue 4 days after NRP administration.
# [2] = system: thalamocortical OTCs; test: thalamocortical OTC neuronal migration assay (cell bridge / cell chain); format: cell-based, rat
# From the text: We developed a new assay system for identifying NRP having migration-inducing activity. The assay system was used following guidelines approved by the Gesundheitsamt Magdeburg animal ethics committee. Newborn Long Evans rats (P0) were killed by decapitation, and neural tissues were used for preparation of organotypic cultures (OTCs). Neocortical tissue (areas 17-18 according to the Paxinos rat atlas of the developing rat brain) and thalamic tissue from the dorsal thalamus (visual areas) were extracted. These areas represent the visual axis. The dorsal thalamus was accessed by an intersection cut to remove the hypothalamus. Subsequently, the thalamus was sliced frontally using a McIllwain tissue chopper into 350 μm thick slices. Using a dissecting microscope, the habenula nucleus served as a landmark to select only dorsal thalamic areas. Cortical tissues were cut using two sagittal and two frontal intersections in order to obtain areas 17-18 of the occipital cortex. Before the last frontal cut was made, the hippocampal formation was removed. The cortical tissues were sliced by a Mclllwain tissue chopper into 350 μm thick frontal slices and was incubated in Gey's balanced salt solution (GBSS) plus 0.65% D(+)glucose, and tissuesswere kept at 4° C. for at least 30-40 minutes for recovery.
# For each assay, two slices of tissue, one cortical and one thalamic, were arranged at a distance at least about 3 mm from each other on a glass substrate (e.g., a cover slip; FIG. 1). The thalamus was oriented with the habenula nucleus facing cortical layer VI. The tissues were adhered to the substrate using a plasma clot (10 μl chicken plasma (Cocalico) coagulated with 10 μl thrombin (25 U/ml, ICN) and the tissues were subsequently cultured (cultivated) at 36° C. in a roller tube incubator as organotypic cultures using 2/4 BME/¼ HBSS (Invitrogen) medium supplemented with 25% heat-inactivated horse serum (Gaehwiler, 1981) plus 2 mM L0glutamine and 0.65% D-glucose. A 712.5 μl sample of prepared medium was supplemented with 37.5 μl of purified rat NRP-1 (SEQ ID NO:2) (in concentrated or diluted form) in 0.01 M sodium phosphate (pH 7.3) or phosphate alone (control). For the experiments using 600 ng/ml NRP-1, the peptide was concentrated 4 times by speed vacuum centrifugation. The medium containing NRP was changed every three days. After each study was completed, the tissues were fixed using conventional fixatives, and migrating neurons were analysed by immunocytochemistry.
# Thus, any observations of neurite outgrowths or interconnecting cell bridges are due to the influence of factors added to the culture medium. […] Thus, in certain embodiments of this invention, NRPs can be identified and/or quantified. In other embodiments, NRPs amounts can be standardized, forming a basis for therapeutic application of NRPs to treat neurological diseases or conditions.
# Migration of the thalamic neurons was determined after 3 days of co-culture in the presence of NRP. The migration distances were measured by a micrometer scaled-microscopic ocular, beginning from the tissue margin of the migrating cell stream. As a threshold value for the formation of a migrating cell chain was considered to be a number of at least 5 interconnected neurons. For the determination of the dose-response curve, the longest distance of a migrated neuron from the thalamic tissue margin was measured. Results are given as mean values+/− standard deviation.
substance,measurement,setting,value
"NRP-1: rat 16 amino acid neural regeneration peptide purified from hippocampal OTC supernatant, Tyr Asp Pro Glu ... Cys His-NH2 (YDPEAASAPGSGNPCH-NH2)",astroglial division,[1],does not induce astroglial division
same,astrocytes in close vicinity to the neuronal migration stream of proliferative character,"[1]; 3 nM, 4 days in vitro",Approximately 30%
same,concentration at which neuronal migration was clearly detected,[2]; 2 ng/ml = 1 nM,2 ng/mL
same,length of cell bridge between the thalamic and cortical tissues,[2]; 6 ng/ml (3 nM),2500±240 μm
same,concentrations at which neuronal migration was not increased,[2]; 10-30 nM,20 to 60 ng/mL
same,"interconnecting neurite network formed, time after cultivation start",[2]; NRP-1 supplemented co-cultures,≤ 36 h
same,concentration producing the longest cell chain,"[2]; dose-response 2-600 ng/ml, 6 ng/ml = 3 nM",6 ng/mL
same,concentration producing the greatest effect (migrating cell chain),[2]; thalamocortical OTCs,3 nM
